Entries after “also recorded” stand apart in the source; their conditions may differ.
Experiments:
[1] = test system: NRel M. catarrhalis; settings: released from dual-species biofilm by anti-rsPilA; cited from earlier work
[2] = test system: NRel NTHI; settings: released from dual-species biofilm by anti-rsPilA; cited from earlier work
[3] = test system: NRel versus Non-Associated NTHI
Source text: Applicant tested for this phenotype for either Amox/Clav or Trimethoprim/Sulfamethoxazole to determine when this sensitivity first appears and how long this NRel phenotype lasts (i.e. what is the window of opportunity in which to treat a patient with a biofilm disease?). Here, NRel are compared not to planktonic bacteria (due to their artificiality) but rather to “Non-Associated” bacteria which are those found in the supernatant above the biofilm but not associated with biofilm residence as this population represents those bacteria that naturally come off the biofilm or were never a part of the biofilm which is a normal aspect of the preferred bacterial lifestyle in nature. […] Box Legend: NRelAC—relative killing by Amox/Clav; NRel TS—relative killing by Trimethoprim/Sulfamethoxazole; open symbols are the same but for the non-associated populations of bacteria as now described in this legend. Data was generated with a murine anti-tip chimer antibody.
Box Legend: NRelAC—relative killing by Amox/Clav; NRel TS—relative killing by Trimethoprim/Sulfamethoxazole; open symbols are the same but for the non-associated populations of bacteria as now described in this legend. Data was generated with a murine anti-tip chimer antibody.

[4] = test system: NTHI (biofilm-resident, planktonic, anti-rsPilA NRel, anti-IHF NRel); experiment: Antibiotic sensitivity of biofilm-resident, planktonic or NRel NTHI (2 h antibiotic exposure, CFU plating); format: cell-based, Nontypeable Haemophilus influenzae; settings: for sensitivity to killing of anti-IHF NRel compared to planktonic NTHI / sensitivity to killing of anti-rsPilA NRel compared to planktonic NTHI: 2 h antibiotic at concentration killing ~20-25% of planktonic NTHI; for sensitivity to killing of time-matched anti-rsPilA NRel compared to planktonic NTHI: TMP-SMX 0.09 and 0.45 μg per ml, AMC 0.3 and 0.15 μg per ml
Experimental: Biofilms were established for 16 hr at 37° C. as described above. For biofilm-resident NTHI: biofilms were washed twice with DPBS and incubated in sBHI supplemented with the indicated antibiotics for at 37° C. 2 h. For planktonic NTHI: NTHI were incubated in sBHI for 3 hr as described above to reach log phase of growth, then diluted to the approximate concentration of either the anti-IHF (2×10^8 CFU/ml) or anti-rsPilA NRels (3×10^8 CFU/ml) to permit comparison between anti-IHF or anti-rsPilA NRels, (see FIG. 1). Planktonic NTHI were incubated with the indicated antibiotics at 37° C. for 2 hr. For NRel NTHI: anti-IHF or anti-rsPilA NRel, generated and collected as described above were incubated at 37° C. for 2 hr with the indicated antibiotics. CFU NTHI were determined by serial dilution and plating. Amoxicillin (Sigma-Aldrich, St. Louis, MO) and clavulanate (U.S. Pharmacopeia, Rockville, MD) were used at a ratio of 2:1. Trimethoprim (Sigma-Aldrich) and sulfamethoxazole (Santa Cruz Biotech, Dallas, TX) were used at a ratio of 1:5. […] All experiments were performed at least three times on separate days with two technical replicates for each treatment and control group.
To avoid excessive manipulation or dilution of NRel NTHI, and to permit direct comparison of equal numbers of planktonic and NRel, the planktonic cell density was adjusted to the same CFU per ml as the NRel population in each experiment as follows: NTHI were incubated statically to mid log phase growth then diluted to either 3×10^8 CFU/ml for comparison with anti-rsPilA NRel collected at 6 h, or to 2×10^8 CFU/ml for comparison with anti-IHF NRel collected at 15 min (see FIG. 1). Applicant then determined the concentrations of amoxicillin (Sigma-Aldrich, St. Louis, MO) and clavulanate (U.S. Pharmacopeia, Rockville, MD), or of trimethoprim (Sigma-Aldrich) and sulfamethoxazole (Santa Cruz Biotech, Dallas, TX) that killed approximately 25% of planktonic NTHI at each density. The same antibiotic concentrations were used for the anti-IHF or anti-rsPilA NRel, the density-matched (same CFU/ml) planktonic NTHI, and the adherent biofilm for each relevant experiment. […] Applicant then assessed killing of anti-IHF or anti-rsPilA NRel by concentrations of amoxicillin plus clavulanic acid (“augmentin”, AMC) or trimethoprim plus sulfamethoxazole (TMP-SMX) that killed 25% of the planktonic NTHI at the same density.
Anti-rsPilA or anti-IHF NRel were collected and sonicated as described above. After sonication for 2 min in a water bath sonicator to break up any NTHI aggregates, NRel or planktonic NTHI were incubated with the indicated antibiotics at 37° C. for 2 h, then serially diluted and plated on chocolate agar to quantify viable NTHI. To assay biofilm-resident NTHI, biofilms were established for 16 h at 37° C. as described above, washed twice with DPBS and incubated in sBHI supplemented with the indicated antibiotics at 37° C. After 2 h, biofilm-resident NTHI were collected by forceful pipetting, sonicated for 2 min and enumerated as described above. All experiments were performed at least three times on separate days with two or three technical replicates for each treatment and control group.

[5] = after exposure to antibodies against rsPilA

| Compound | susceptibility of NRel M. catarrhalis compared to those from growth on agar [1] | susceptibility of NRel NTHI compared to those from growth on agar [2] | sensitivity of anti-DNABII NRel to killing compared to Non-Associated bacteria ([3]; NRel induced with murine anti-tip chimer antibody) | sensitivity of anti-rsPilA NRel to being killed compared to Non-Associated bacteria ([3]; NTHI released by antibody against rsPilA) | time at which greater sensitivity of anti-rsPilA NRel appears [3, 5] | time at which the sensitive phenotype of anti-rsPilA NRel remains [3, 5] [h] | sensitivity of biofilm-resident NTHI to killing ([4]; 16 h biofilm, 2 h antibiotic) | sensitivity to killing of anti-IHF NRel compared to biofilm-resident NTHI ([4]; NRel after 15 min anti-IHF, 2 h antibiotic) | sensitivity to killing of anti-IHF NRel compared to planktonic NTHI ([4]; NRel after 15 min anti-IHF) | sensitivity to killing of anti-IHF NRel compared to planktonic NTHI ([4]; NRel after 15 min anti-IHF, listed as TMP-SMX) | sensitivity to killing of anti-rsPilA NRel compared to biofilm-resident NTHI ([4]; NRel after 6 h anti-rsPilA, 2 h antibiotic) | sensitivity to killing of anti-rsPilA NRel compared to planktonic NTHI ([4]; NRel after 6 h anti-rsPilA) | sensitivity to killing of anti-rsPilA NRel compared to planktonic NTHI ([4]; NRel after 6 h anti-rsPilA, listed as TMP-SMX) | sensitivity to killing of time-matched anti-rsPilA NRel compared to planktonic NTHI ([4]; NRel collected after 2 h, listed as TMP-SMX) | sensitivity to killing of time-matched anti-rsPilA NRel compared to planktonic NTHI ([4]; NRel collected after 2 h, listed as TMP/SMX) | sensitivity to killing of time-matched anti-IHF NRel compared to planktonic NTHI ([4]; NRel collected after 2 h, TMP-SMX 0.94 and 4.7 μg/ml, AMC 2.5 and 1.25 μg/ml) |
| --- | --- | --- | --- | --- | --- | --- | --- | --- | --- | --- | --- | --- | --- | --- | --- | --- |
| CC[C@H]1OC(=O)[C@H](C)[C@@H](O[C@H]2C[C@@](C)(OC)[C@@H](O)[C@H](C)O2)[C@H](C)[C@@H](O[C@@H]2O[C@H](C)C[C@H](N(C)C)[C@H]2O)[C@](C)(OC)C[C@@H](C)C(=O)[C@H](C)[C@@H](O)[C@]1(C)O [clarithromycin] | more susceptible | – | – | – | – | – | – | – | – | – | – | – | – | – | – | – |
| trimethoprim and sulfamethoxazole [T/S] | – | more susceptible | as but not more sensitive | significantly greater sensitivity | approximately one | ≥ 6 | minimal sensitivity | significantly more sensitive | only equally as sensitive | only equally as sensitive | significantly more sensitive | significantly more sensitive; also recorded: significantly greater | significantly greater | significantly more susceptible | significantly more sensitive | only equally as sensitive; also recorded: equally susceptible |
